According to patent publication US8933230B2, “Phosphorus-containing group-substituted quinoline, its preparation process, medical composition containing the compounds and application” (priority 2011, dated 2015):

How the values were obtained:
Test in all cases: KinomeScan kinase panel
Assay type in all cases: binding
[1] = target: T1, ABL1(H396P)-nonphosphorylated (Homo sapiens, UniProt P00519, H396P)
T1 construct: purchased DiscoveRx Corporation (KinomeScan)
In short: (§1)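 Panel screen (KinomeScan, 442 kinases). One test concentration, 1000 nM; no dose-response.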

[2] = target: T2, BRK (Homo sapiens, UniProt Q13882)
T2 construct: purchased DiscoveRx Corporation (KinomeScan)
In short: as §1

[3] = target: T3, CAMK1 (Homo sapiens, UniProt Q14012)
T3 construct: purchased DiscoveRx Corporation (KinomeScan)
In short: as §1

[4] = target: T4, CAMK2D (Homo sapiens, UniProt Q13557)
T4 construct: purchased DiscoveRx Corporation (KinomeScan)
In short: as §1

[5] = target: T5, CAMKK2 (Homo sapiens, UniProt Q96RR4)
T5 construct: purchased DiscoveRx Corporation (KinomeScan)
In short: as §1

[6] = target: T6, CDK4-cyclinD3 (Homo sapiens, UniProt P11802)
T6 construct: purchased DiscoveRx Corporation (KinomeScan)
In short: as §1

[7] = target: T7, CDK7 (Homo sapiens, UniProt P50613)
T7 construct: purchased DiscoveRx Corporation (KinomeScan)
In short: as §1

[8] = target: T8, CDKL5 (Homo sapiens, UniProt O76039)
T8 construct: purchased DiscoveRx Corporation (KinomeScan)
T8 sequence (O76039 whole entry): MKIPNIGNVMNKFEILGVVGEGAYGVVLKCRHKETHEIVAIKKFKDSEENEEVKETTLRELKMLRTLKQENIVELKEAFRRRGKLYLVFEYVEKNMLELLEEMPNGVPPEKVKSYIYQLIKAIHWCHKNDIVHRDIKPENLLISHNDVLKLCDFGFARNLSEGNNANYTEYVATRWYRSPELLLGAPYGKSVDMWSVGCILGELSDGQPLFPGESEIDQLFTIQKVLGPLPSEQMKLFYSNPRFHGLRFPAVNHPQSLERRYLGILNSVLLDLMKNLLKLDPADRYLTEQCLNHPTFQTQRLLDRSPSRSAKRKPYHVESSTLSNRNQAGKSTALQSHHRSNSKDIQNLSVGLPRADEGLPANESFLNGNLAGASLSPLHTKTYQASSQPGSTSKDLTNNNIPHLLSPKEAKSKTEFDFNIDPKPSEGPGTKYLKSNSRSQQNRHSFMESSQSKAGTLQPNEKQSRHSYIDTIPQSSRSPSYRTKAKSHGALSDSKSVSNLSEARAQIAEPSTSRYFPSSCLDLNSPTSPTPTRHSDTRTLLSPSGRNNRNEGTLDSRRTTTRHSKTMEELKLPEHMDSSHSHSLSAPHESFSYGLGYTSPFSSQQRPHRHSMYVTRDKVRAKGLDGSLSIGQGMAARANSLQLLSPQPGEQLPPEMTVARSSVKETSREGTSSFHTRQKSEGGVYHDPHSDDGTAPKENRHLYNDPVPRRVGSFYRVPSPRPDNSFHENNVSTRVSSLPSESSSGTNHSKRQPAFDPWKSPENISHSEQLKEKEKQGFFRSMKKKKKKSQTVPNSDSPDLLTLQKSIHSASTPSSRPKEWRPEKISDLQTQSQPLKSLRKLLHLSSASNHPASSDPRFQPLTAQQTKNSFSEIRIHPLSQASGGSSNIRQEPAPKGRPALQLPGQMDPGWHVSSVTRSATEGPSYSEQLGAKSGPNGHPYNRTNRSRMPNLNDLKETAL
In short: as §1

[9] = target: T9, CHEK1 (Homo sapiens, UniProt O14757)
T9 construct: purchased DiscoveRx Corporation (KinomeScan)
In short: as §1

[10] = target: T10, CLK2 (Homo sapiens, UniProt P49760)
T10 construct: purchased DiscoveRx Corporation (KinomeScan)
In short: as §1

[11] = target: T11, DCAMKL1 (Homo sapiens, UniProt O15075)
T11 construct: purchased DiscoveRx Corporation (KinomeScan)
In short: as §1

[12] = target: T12, DCAMKL2 (Homo sapiens, UniProt Q8N568)
T12 construct: purchased DiscoveRx Corporation (KinomeScan)
In short: as §1

[13] = target: T13, DRAK2 (Homo sapiens, UniProt O94768)
T13 construct: purchased DiscoveRx Corporation (KinomeScan)
T13 sequence (O94768 whole entry): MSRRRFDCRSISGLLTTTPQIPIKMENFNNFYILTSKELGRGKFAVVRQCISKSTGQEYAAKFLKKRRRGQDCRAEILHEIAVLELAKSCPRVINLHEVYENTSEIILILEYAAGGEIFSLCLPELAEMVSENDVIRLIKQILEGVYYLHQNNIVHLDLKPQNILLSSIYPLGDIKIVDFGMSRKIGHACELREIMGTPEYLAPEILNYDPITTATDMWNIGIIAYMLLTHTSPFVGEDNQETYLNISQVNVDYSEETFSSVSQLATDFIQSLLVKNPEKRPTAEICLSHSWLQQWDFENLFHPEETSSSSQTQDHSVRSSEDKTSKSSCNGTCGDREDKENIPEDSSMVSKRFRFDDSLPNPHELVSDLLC
In short: as §1

[14] = target: T14, EGFR(G719C) (Homo sapiens, UniProt P00533, G719C)
T14 construct: purchased DiscoveRx Corporation (KinomeScan)
In short: as §1

[15] = target: T15, FLT3(R834Q) (Homo sapiens, UniProt P36888, R834Q)
T15 construct: purchased DiscoveRx Corporation (KinomeScan)
In short: as §1

[16] = target: T16, HCK (Homo sapiens, UniProt P08631)
T16 construct: purchased DiscoveRx Corporation (KinomeScan)
In short: as §1

[17] = target: T17, HIPK3 (Homo sapiens, UniProt Q9H422)
T17 construct: purchased DiscoveRx Corporation (KinomeScan)
T17 sequence (Q9H422 whole entry): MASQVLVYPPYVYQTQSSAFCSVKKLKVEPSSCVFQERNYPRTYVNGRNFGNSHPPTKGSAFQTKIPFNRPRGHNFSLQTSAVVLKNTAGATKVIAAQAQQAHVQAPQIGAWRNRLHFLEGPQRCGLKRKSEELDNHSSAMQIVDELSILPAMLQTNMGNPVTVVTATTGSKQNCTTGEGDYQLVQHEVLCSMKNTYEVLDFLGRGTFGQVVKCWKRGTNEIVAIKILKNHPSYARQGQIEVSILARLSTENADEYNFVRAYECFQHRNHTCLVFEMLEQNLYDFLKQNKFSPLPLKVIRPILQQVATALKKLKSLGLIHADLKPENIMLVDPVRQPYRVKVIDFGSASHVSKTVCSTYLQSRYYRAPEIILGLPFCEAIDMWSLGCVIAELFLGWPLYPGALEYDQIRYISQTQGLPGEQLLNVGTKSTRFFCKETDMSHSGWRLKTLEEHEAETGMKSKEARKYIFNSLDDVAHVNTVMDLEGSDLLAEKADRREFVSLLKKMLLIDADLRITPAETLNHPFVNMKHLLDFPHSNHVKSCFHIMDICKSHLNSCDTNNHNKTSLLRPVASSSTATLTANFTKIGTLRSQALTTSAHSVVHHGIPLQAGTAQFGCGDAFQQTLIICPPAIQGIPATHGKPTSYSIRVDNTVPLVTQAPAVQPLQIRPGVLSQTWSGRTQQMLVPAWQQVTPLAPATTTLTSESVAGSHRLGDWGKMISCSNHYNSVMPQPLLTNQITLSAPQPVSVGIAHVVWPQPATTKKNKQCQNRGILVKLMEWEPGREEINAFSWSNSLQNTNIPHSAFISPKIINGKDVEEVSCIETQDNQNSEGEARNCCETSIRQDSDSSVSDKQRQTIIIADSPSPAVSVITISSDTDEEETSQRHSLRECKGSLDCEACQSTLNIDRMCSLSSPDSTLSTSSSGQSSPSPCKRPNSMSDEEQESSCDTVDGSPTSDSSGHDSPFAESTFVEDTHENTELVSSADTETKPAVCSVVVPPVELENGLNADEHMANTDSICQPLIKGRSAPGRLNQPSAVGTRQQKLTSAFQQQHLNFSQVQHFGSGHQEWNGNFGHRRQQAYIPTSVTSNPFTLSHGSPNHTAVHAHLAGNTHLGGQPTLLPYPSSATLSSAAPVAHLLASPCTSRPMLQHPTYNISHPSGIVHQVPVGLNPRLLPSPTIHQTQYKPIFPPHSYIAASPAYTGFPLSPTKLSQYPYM
In short: as §1

[18] = target: T18, JAK1(JH1domain-catalytic) (Homo sapiens, UniProt P23458)
T18 construct: JAK1(JH1domain-catalytic); purchased DiscoveRx Corporation (KinomeScan)
In short: as §1

[19] = target: T19, LIMK1 (Homo sapiens, UniProt P53667)
T19 construct: purchased DiscoveRx Corporation (KinomeScan)
In short: as §1

[20] = target: T20, MRCKA (Homo sapiens, UniProt Q5VT25)
T20 construct: purchased DiscoveRx Corporation (KinomeScan)
In short: as §1

[21] = target: T21, NDR2 (Homo sapiens, UniProt Q9Y2H1)
T21 construct: purchased DiscoveRx Corporation (KinomeScan)
T21 sequence (Q9Y2H1 whole entry): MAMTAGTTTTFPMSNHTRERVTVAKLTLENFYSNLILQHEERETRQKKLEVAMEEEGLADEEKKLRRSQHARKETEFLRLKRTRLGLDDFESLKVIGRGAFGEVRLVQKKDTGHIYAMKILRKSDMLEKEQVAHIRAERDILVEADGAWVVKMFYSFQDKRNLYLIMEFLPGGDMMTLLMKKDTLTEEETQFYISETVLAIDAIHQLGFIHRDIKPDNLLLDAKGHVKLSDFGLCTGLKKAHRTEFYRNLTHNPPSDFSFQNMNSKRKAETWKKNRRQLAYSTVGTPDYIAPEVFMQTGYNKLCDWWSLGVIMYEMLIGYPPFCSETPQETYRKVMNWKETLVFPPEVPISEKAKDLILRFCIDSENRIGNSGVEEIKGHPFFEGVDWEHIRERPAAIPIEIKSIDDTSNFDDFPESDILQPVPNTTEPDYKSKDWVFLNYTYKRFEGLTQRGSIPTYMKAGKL
In short: as §1

[22] = target: T22, PAK1 (Homo sapiens, UniProt Q13153)
T22 construct: purchased DiscoveRx Corporation (KinomeScan panel)
T22 sequence (Q13153 whole entry): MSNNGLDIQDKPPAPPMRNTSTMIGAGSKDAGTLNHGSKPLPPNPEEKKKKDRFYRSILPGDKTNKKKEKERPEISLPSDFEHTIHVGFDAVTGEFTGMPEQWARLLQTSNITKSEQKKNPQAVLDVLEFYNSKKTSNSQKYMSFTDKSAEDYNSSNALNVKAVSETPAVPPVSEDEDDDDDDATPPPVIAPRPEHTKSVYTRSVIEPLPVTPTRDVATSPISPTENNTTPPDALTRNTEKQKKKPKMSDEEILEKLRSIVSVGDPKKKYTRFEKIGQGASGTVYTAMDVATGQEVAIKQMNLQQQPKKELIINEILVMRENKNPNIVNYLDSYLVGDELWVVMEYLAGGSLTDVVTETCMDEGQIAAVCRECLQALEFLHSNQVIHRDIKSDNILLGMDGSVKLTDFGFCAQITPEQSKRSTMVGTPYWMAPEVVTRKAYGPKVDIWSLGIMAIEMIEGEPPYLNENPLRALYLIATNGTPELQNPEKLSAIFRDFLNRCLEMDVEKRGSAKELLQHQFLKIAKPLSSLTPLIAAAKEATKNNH
In short: as §1

[23] = target: T23, PIK3CA(18DDL) (Homo sapiens, UniProt P42336, I800L)
T23 construct: purchased DiscoveRx Corporation (KinomeScan)
In short: as §1

[24] = target: T24, PIK3CB (Homo sapiens, UniProt P42338)
T24 construct: purchased DiscoveRx Corporation (KinomeScan)
In short: as §1

[25] = target: T25, PRKCI (Homo sapiens, UniProt P41743)
T25 construct: purchased DiscoveRx Corporation (KinomeScan)
In short: as §1

[26] = target: T26, PRKCQ (Homo sapiens, UniProt Q04759)
T26 construct: purchased DiscoveRx Corporation (KinomeScan)
T26 sequence (Q04759 whole entry): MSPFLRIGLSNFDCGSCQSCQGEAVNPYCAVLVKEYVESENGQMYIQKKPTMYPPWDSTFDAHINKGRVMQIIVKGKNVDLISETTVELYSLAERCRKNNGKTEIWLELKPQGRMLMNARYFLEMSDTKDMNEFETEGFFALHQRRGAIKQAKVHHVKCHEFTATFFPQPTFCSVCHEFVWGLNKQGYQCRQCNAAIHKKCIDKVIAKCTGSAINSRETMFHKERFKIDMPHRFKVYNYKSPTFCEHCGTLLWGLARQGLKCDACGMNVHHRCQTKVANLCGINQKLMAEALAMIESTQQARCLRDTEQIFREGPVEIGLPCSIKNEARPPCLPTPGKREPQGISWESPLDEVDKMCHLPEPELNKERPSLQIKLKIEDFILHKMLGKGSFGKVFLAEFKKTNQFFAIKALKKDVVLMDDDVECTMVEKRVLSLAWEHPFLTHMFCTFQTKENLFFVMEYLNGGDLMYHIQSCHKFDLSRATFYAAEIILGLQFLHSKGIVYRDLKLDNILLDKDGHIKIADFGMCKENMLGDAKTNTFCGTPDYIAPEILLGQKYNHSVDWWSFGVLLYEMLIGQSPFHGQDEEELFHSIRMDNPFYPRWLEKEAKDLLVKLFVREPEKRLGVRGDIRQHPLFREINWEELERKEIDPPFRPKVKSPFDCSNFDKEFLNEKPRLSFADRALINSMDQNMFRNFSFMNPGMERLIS
In short: as §1

[27] = target: T27, PYK2 (Homo sapiens, UniProt Q14289)
T27 construct: purchased DiscoveRx Corporation
In short: as §1

[28] = target: T28, RET (Homo sapiens, UniProt P07949)
T28 construct: purchased DiscoveRx Corporation
In short: as §1

[29] = target: T29, RPS6KA4(kin.Dom.1-N-termimal) (Homo sapiens, UniProt O75676)
T29 construct: kin.Dom.1; purchased DiscoveRx Corporation
T29 sequence (O75676 33-301 limits assumed): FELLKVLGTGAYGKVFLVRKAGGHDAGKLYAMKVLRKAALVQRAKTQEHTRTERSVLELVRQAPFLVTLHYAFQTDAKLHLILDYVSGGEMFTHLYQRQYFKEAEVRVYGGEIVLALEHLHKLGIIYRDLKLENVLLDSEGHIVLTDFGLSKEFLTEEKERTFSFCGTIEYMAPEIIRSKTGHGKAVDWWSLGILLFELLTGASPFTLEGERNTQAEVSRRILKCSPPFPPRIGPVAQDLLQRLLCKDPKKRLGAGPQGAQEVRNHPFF
In short: as §1

[30] = target: T30, STK33 (Homo sapiens, UniProt Q9BYT3)
T30 construct: purchased DiscoveRx Corporation (KinomeScan)
T30 sequence (Q9BYT3 whole entry): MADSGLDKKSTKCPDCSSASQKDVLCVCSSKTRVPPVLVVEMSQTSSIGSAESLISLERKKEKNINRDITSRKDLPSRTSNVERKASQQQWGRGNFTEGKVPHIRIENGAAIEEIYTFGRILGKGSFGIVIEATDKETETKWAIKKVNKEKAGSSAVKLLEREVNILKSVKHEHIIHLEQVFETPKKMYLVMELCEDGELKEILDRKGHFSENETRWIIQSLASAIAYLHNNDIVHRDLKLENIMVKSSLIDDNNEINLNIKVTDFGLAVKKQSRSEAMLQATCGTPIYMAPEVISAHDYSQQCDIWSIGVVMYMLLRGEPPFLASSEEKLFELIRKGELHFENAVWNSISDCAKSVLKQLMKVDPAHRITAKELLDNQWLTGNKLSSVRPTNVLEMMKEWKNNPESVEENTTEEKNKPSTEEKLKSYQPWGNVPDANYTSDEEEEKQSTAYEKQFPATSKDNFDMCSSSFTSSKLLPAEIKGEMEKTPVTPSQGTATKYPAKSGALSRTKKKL
In short: as §1

[31] = target: T31, TNIK (Homo sapiens, UniProt Q9UKE5)
T31 construct: purchased DiscoveRx Corporation (KinomeScan)
In short: as §1

[32] = target: T32, TYK2(JH1domain-catalytic) (Homo sapiens, UniProt P29597)
T32 construct: JH1domain; purchased DiscoveRx Corporation (KinomeScan)
In short: as §1

[33] = target: T33, TYK2(JH1domain-pseudokinase) (Homo sapiens, UniProt P29597)
T33 construct: pseudokinase; purchased DiscoveRx Corporation (KinomeScan service)
In short: as §1

[34] = target: T34, ULK3 (Homo sapiens, UniProt Q6PHR2)
T34 construct: purchased DiscoveRx Corporation (KinomeScan service)
In short: as §1

Compound: CCOP(=O)(CN1CCC(COc2cc3nccc(Oc4ccc(NC(=O)C5(C(=O)Nc6ccc(F)cc6)CC5)cc4F)c3cc2OC)CC1)OCC [Example 10, N1-[4-[[7-[[1-(diethoxyphosphorylmethyl)-4-piperidinyl]methoxyl]-6-methoxyl-4-quinolyl]oxyl]-3-fluorophenyl]-N1′-(4-fluorophenyl)cyclopropane-1,1-dicarboxamide]
- % Ctrl@1000 nM [1]: 1.9 % Ctrl
- % Ctrl@1000 nM [2]: 3.0 % Ctrl
- % Ctrl@1000 nM [3]: 78 % Ctrl
- % Ctrl@1000 nM [4]: 94 % Ctrl
- % Ctrl@1000 nM [5]: 81 % Ctrl
- % Ctrl@1000 nM [6]: 100 % Ctrl
- % Ctrl@1000 nM [7]: 15 % Ctrl
- % Ctrl@1000 nM [8]: 100 % Ctrl
- % Ctrl@1000 nM [9]: 100 % Ctrl
- % Ctrl@1000 nM [10]: 78 % Ctrl
- % Ctrl@1000 nM [11]: 91 % Ctrl
- % Ctrl@1000 nM [12]: 100 % Ctrl
- % Ctrl@1000 nM [13]: 100 % Ctrl
- % Ctrl@1000 nM [14]: 75 % Ctrl
- % Ctrl@1000 nM [15]: 16 % Ctrl
- % Ctrl@1000 nM [16]: 0.35 % Ctrl
- % Ctrl@1000 nM [17]: 66 % Ctrl
- % Ctrl@1000 nM [18]: 93 % Ctrl
- % Ctrl@1000 nM [19]: 92 % Ctrl
- % Ctrl@1000 nM [20]: 100 % Ctrl
- % Ctrl@1000 nM [21]: 82 % Ctrl
- % Ctrl@1000 nM [22]: 37 % Ctrl
- % Ctrl@1000 nM [23]: 100 % Ctrl
- % Ctrl@1000 nM [24]: 100 % Ctrl
- % Ctrl@1000 nM [25]: 100 % Ctrl
- % Ctrl@1000 nM [26]: 100 % Ctrl
- % Ctrl@1000 nM [27]: 19 % Ctrl
- % Ctrl@1000 nM [28]: 0.1 % Ctrl
- % Ctrl@1000 nM [29]: 76 % Ctrl
- % Ctrl@1000 nM [30]: 46 % Ctrl
- % Ctrl@1000 nM [31]: 70 % Ctrl
- % Ctrl@1000 nM [32]: 92 % Ctrl
- % Ctrl@1000 nM [33]: 100 % Ctrl
- % Ctrl@1000 nM [34]: 82 % Ctrl
